From article PMC2667487, “Cellular localization of kinin B1 receptor in the spinal cord of streptozotocin-diabetic rats with a fluorescent [N^α-Bodipy]-des-Arg^9-bradykinin” (Journal of Neuroinflammation, 2009)
Where “and” joins values, the source holds several entries; their conditions need not be identical. Identical values can stand only once. Entries after “also recorded” stand apart in the source; their conditions may differ. Square brackets hold non-standard residues; d marks the D form. Peptide text beside a SMILES is read from it. d2Nal = N[C@H](Cc1ccc2ccccc2c1)C(=O)O

Columns and labels:
[1] = test system: B1R in thoracic spinal cord; assay: BdABK fluorescent labeling of B1R and its displacement, confocal microscopy; type: binding, rat; settings: STZ-treated thoracic spinal cord, BdABK 50 μM co-incubated with 10^-5 M antagonist
Experimental: On the day of experiments, sections were thawed at room temperature for 10 min to enhance sections adhesion. They were pre-incubated for 10 min in 25 mM PIPES-NH4OH buffer (pH 7.4) to allow degradation of endogenous kinins which could occupy receptors. Sections were exposed for 90 min to 50 μM BdABK. Thereafter, slides were washed twice (1 min) in PIPES and fixed with 4% para-formaldehyde. Slides were washed three times (5 min) and then exposed to 1 M of glycine for 90 min to eliminate autofluorescence from aldehyde-fixed tissue. […] Each concentration of each competitor was tested on 4 sections per rat from 7 different rats. Those sections were exposed to the film, and total binding was calculated as described above.

[2] = test system: rat model of insulin-resistance; settings: cited from earlier work
Description: (§1) Importantly, the development of tactile and cold allodynia in a rat model of insulin-resistance was blocked by the B1R antagonist SSR240612 [28] and by two antioxidants (N-acetyl-L-cysteine and alpha-lipoic acid) ...

B1R = settings: cited from earlier work
Description: as §1

kinin B1R = target: T1, kinin B1R (Rattus norvegicus, UniProt P97583); assay: competition curves by quantitative autoradiography, displacement of [^125I]-HPP-desArg^10-Hoe 140 (B1R); settings: 200 pM [^125I]-HPP-desArg^10-Hoe 140, competitor 10^-10 to 10^-6 M, thoracic spinal cord sections of STZ-treated rats, 90 min, room temperature, 25 mM PIPES-NH4OH pH 7.4; means ± SEM, 4 sections per rat from 7 rats; read-out: IC50, inhibition of total B1R binding sites
T1 construct: from tissue; host or cells: rat spinal cord sections (autoradiography)
T1 sequence (P97583 1-337): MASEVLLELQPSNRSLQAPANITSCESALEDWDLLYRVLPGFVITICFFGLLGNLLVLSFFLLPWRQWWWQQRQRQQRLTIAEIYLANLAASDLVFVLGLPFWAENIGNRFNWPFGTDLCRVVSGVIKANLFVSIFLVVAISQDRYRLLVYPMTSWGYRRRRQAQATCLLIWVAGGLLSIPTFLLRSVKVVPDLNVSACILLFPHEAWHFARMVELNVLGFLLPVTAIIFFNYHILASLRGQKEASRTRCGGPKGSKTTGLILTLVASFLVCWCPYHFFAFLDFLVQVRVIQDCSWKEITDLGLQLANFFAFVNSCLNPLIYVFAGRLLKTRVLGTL
Experimental: (§2) They were iodinated by the chloramine T method. […] At the end of the incubation period, slides were transferred sequentially through four rinses of 4 min each in 25 mM PIPES (pH 7.4; 4°C) dipped for 15s in distilled water (4°C) to remove the excess of salts, and then air-dried. Kodak Scientific Imaging Films BIOMAXTM MR® (Amersham Pharmacia Biotech Canada) were juxtaposed onto the slides in the presence of [^125I]-microscales and exposed at room temperature for 7 days. The films were developed (GBX developer) and fixed (GBX fixer). Autoradiograms were quantified by densitometry using an MCIDTM image analysis system (Imaging Research, St. Catharines, ON, Canada). A standard curve from [^125I]-microscales was used to convert density levels into fentomoles per milligram of protein [48]. Specific binding was determined by subtracting values of nonspecific binding from that of total binding. […] Each concentration of each competitor was tested on 4 sections per rat from 7 different rats. Those sections were exposed to the film, and total binding was calculated as described above. […] All data were expressed as means ± S.E.M. obtained from n rats. Statistical significance was determined with Student's t-test for unpaired samples or a one-way analysis of variance (ANOVA) followed by post-hoc Dunnett test for multiple comparisons.

kinin B2R = target: T2, kinin B2R (Rattus norvegicus, UniProt P25023); assay: competition curves by quantitative autoradiography, displacement of [^125I]-HPP-Hoe 140 (B2R); settings: 200 pM [^125I]-HPP-Hoe 140, competitor 10^-10 to 10^-6 M, thoracic spinal cord sections of STZ-treated rats, 90 min, room temperature, 25 mM PIPES-NH4OH pH 7.4; means ± SEM, 4 sections per rat from 7 rats; read-out: IC50, displacement of B2R binding sites
T2 construct: from tissue; host or cells: rat tissue sections (spinal cord, autoradiography)
T2 sequence (P25023 1-396): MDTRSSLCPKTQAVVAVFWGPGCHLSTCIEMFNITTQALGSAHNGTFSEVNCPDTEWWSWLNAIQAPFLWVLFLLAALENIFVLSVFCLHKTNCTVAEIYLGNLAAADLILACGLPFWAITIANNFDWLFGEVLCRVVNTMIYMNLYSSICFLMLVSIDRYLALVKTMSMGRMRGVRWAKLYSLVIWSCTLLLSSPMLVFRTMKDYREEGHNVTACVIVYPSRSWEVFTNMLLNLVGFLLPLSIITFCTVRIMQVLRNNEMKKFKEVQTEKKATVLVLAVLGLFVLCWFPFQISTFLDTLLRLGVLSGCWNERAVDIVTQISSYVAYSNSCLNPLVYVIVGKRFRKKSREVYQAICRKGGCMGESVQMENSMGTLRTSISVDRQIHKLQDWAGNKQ
Experimental: as §2

[3] = test system: B1R mRNA in thoracic spinal cord; assay: B1R mRNA expression, SYBR green-based quantitative RT-PCR; set-up: species or system rat; settings: STZ 65 mg/kg i.p., 4 days, 18S reference, means of 3 to 6 rats
Experimental: (§3) Rats were used 5 days after their arrival and injected under low light with freshly prepared STZ (65 mg/kg; i.p.; Sigma-Aldrich, Oakville, ON, Canada). Age-matched controls were injected with vehicle (sterile saline 0.9%, pH. 7.0). Glucose concentrations were measured, with a commercial blood glucose-monitoring kit (Accusoft; Roche Diagnostics, Laval, Que., Canada), in blood samples obtained from the tail vein, in non-fasting animals, before STZ injection, and 4 days after treatment. Only STZ-treated rats whose blood glucose concentration was higher than 20 mM were considered as diabetic.
Four days after injection of STZ, rats were anaesthetized with CO2 inhalation and then decapitated. […] First-strand cDNA synthesized from 400 ng total RNA with random hexamer primers was used as template for each reaction with the QuantiTect Rev Transcription Kit (QIAGEN). SYBR Green-based real-time quantitative PCR using Mx3000p device for signal detection (Stratagene, La Jolla, CA, USA) was performed as described. […] For standardization and quantification, rat 18S was amplified simultaneously. […]
PCR conditions were as follows: 95°C for 15 min, followed by 46 cycles at 94°C for 15 s, 60°C for 30 s and 72°C for 30 s. […] The relative quantification of gene expression was analyzed by the 2^-ΔΔCt method.

[4] = test system: B1R binding sites in thoracic spinal cord; assay: density of specific B1R binding sites, quantitative autoradiography; set-up: species or system rat; settings: STZ 65 mg/kg i.p., 4 days, 7 to 8 rats
Experimental: as §3
The radioligands for kinin B1R, HPP-desArg^10-Hoe140 (3-(4 hydroxyphenyl) propionyl-desArg^9-D-Arg^0 [Hyp^3, Thi^5, D-Tic^7, Oic^8]Bradykinin) and kinin B2R, HPP-Hoe140 (3-(4 hydroxyphenyl) propionyl-D-Arg^0 [Hyp^3, Thi^5, D-Tic^7, Oic^8]Bradykinin) were synthesized and kindly provided by Dr Witold Neugebauer (Dept Pharmacology, University of Sherbrooke, Sherbrooke, Que., Canada). They were iodinated by the chloramine T method. […] Autoradiograms were quantified by densitometry using an MCID™ image analysis system (Imaging Research, St. Catharines, ON, Canada). […] Specific binding was determined by subtracting values of nonspecific binding from that of total binding.

Structure (SMILES): CCN(C(=O)[C@@H](Cc1ccc(CN2[C@H](C)CCC[C@@H]2C)cc1)NC(=O)C[C@@H](NS(=O)(=O)c1ccc2cc(OC)ccc2c1)c1ccc2c(c1)OCO2)C(C)C.Cl [SSR240612]
- displacement of BdABK labeling by B1R antagonist [1]: absence of BdABK labeling; also recorded: B1R labeling was absent; also recorded: elimination of B1R labeling
- development of tactile and cold allodynia [2]: blocked

Structure (SMILES): O=C(O)CCCCC1CCSS1 (stereo not drawn) [alpha-lipoic acid]
- induction of B1R, antioxidants (B1R): prevent the induction of B1R
- development of tactile and cold allodynia, antioxidants [2]: blocked

Structure (SMILES): CC[C@H](C)[C@H](NC(=O)[C@@H](Cc1ccc2ccccc2c1)NC(=O)[C@H](CO)NC(=O)[C@H](Cc1ccccc1)NC(=O)CNC(=O)[C@@H]1CCCN1C(=O)[C@@H]1CCCN1C(=O)[C@H](CCCN=C(N)N)NC(=O)[C@H](CCCCN)NC(C)=O)C(=O)O [R-715, AcLys [D-βNal^7, Ile^8]des-Arg^9-BK] (Ac-KRPPGFS[d2Nal]I-OH)
- IC50 (kinin B1R): 4.3 nM

Structure (SMILES): CC1=CC(C)=[N+]2C1=Cc1ccc(CCC(=O)N[C@@H](CCCNC(=N)N)C(=O)N3CCC[C@H]3C(=O)N3CCC[C@H]3C(=O)NCC(=O)N[C@@H](Cc3ccccc3)C(=O)N[C@@H](CO)C(=O)N3CCC[C@H]3C(=O)N[C@@H](Cc3ccccc3)C(=O)O)n1[B-]2(F)F [BdABK, [N^α-Bodipy]-des-Arg^9-BK]
- IC50 (kinin B1R): 5.3 nM

Structure (SMILES): NC(N)=NCCC[C@@H](N)C(=O)N[C@@H](CCCN=C(N)N)C(=O)N1CCC[C@H]1C(=O)N1C[C@H](O)C[C@H]1C(=O)NCC(=O)N[C@@H](Cc1cccs1)C(=O)N[C@@H](CO)C(=O)N1Cc2ccccc2C[C@@H]1C(=O)N1[C@H](C(=O)N[C@@H](CCCN=C(N)N)C(=O)O)C[C@@H]2CCCC[C@@H]21 [Hoe 140]
- IC50 (kinin B2R): 1.33 ± 0.1 nM

Structure (SMILES): N=C(N)NCCC[C@H](N)C(=O)N1CCC[C@H]1C(=O)N1CCC[C@H]1C(=O)NCC(=O)N[C@@H](Cc1ccccc1)C(=O)N[C@@H](CO)C(=O)N1CCC[C@H]1C(=O)N[C@@H](Cc1ccccc1)C(=O)O [des-Arg^9-BK]
- IC50 (kinin B1R): 19 nM

Structure (SMILES): CC(=O)N[C@@H](CS)C(=O)O [N-acetyl-L-cysteine]
- induction of B1R, antioxidants (B1R): prevent the induction of B1R
- development of tactile and cold allodynia, antioxidants [2]: blocked

Structure (SMILES): CN(N=O)C(=O)N[C@H]1C(O)O[C@H](CO)[C@@H](O)[C@@H]1O (mixture of isomers) [STZ, streptozotocin]
- B1R mRNA expression increase (fold change vs control) [3]: 18 fold and 18.1 fold
- B1R binding sites, fold vs control [4]: 2.7 fold
